Results from ChEMBL document CHEMBL6182863, “Discovery of novel rigid STING PROTAC degraders as potential therapeutics for acute kidney injury” (Eur J Med Chem, 2025).
≈ marks a conversion by molar mass, not a printed value. Calls of active or inactive are those of the source. The calls are words filed in the database; no cut-off is given here.

Tests used:
[1] = Water solubility of the compound at 2 mg by HPLC analysis; assay type: physicochemical
[2] = target: Protein cereblon/Stimulator of interferon genes protein (Homo sapiens, UniProt Q96SW2+Q86WV6); experiment: PROTAC activity at CRBN/STING in human THP-1 cells assessed as induction of STING degradation at 5 uM measured after 24 hrs by Western blotting analysis relative to control; assay type: cell-based
[3] = target: von Hippel-Lindau disease tumor suppressor/Stimulator of interferon genes protein (Homo sapiens, UniProt P40337+Q86WV6); experiment: PROTAC activity at VHL/STING (unknown origin); assay type: protein assay
[4] = Metabolic stability in human liver microsomes assessed as half life; assay type: ADME, Microsome
[5] = Metabolic stability in human liver microsomes assessed as metabolic factor relative to control; assay type: ADME, Microsome
[6] = Metabolic stability in human liver microsomes assessed as intrinsic clearance per gram of protein; assay type: ADME, Microsome

Sequence of Protein cereblon/Stimulator of interferon genes protein (Q86WV6 whole entry, looked up): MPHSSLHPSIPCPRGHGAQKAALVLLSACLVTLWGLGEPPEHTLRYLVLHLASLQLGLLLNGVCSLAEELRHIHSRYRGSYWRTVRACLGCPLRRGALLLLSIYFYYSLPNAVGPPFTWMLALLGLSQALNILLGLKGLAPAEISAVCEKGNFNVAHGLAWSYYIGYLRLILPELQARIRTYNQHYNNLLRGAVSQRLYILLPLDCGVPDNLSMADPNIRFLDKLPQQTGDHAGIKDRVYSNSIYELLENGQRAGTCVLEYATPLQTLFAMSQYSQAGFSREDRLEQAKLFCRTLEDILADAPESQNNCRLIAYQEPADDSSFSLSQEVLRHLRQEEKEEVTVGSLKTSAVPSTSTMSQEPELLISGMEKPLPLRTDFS
Sequence of Protein cereblon/Stimulator of interferon genes protein (Q96SW2 whole entry, looked up): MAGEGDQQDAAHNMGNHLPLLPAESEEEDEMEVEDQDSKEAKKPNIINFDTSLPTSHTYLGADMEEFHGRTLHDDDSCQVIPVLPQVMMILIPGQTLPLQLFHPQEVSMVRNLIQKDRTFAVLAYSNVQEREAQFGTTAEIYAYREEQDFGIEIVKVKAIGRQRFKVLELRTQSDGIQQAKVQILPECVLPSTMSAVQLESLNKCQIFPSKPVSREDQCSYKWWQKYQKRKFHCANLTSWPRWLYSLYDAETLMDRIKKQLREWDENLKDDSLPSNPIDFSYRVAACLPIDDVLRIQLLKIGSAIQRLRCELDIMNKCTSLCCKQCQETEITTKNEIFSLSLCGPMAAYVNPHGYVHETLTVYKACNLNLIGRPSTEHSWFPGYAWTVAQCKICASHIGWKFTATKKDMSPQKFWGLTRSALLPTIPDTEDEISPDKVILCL
Sequence of von Hippel-Lindau disease tumor suppressor/Stimulator of interferon genes protein (P40337 whole entry): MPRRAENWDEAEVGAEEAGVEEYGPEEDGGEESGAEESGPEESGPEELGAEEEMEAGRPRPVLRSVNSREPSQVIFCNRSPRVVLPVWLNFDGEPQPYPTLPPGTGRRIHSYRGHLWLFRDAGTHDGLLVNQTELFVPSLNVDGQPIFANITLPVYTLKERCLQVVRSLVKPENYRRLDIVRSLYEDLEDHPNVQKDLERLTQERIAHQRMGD
Sequence of von Hippel-Lindau disease tumor suppressor/Stimulator of interferon genes protein (Q86WV6 whole entry): as the sequence (Q86WV6 whole entry, looked up) above

Activity [2]	SMILES	further results
43.6%	O=C(/C=C/C(=O)N1CC(CN2CCN(c3cccc4c3C(=O)N(C3CCC(=O)NC3=O)C4=O)CC2)C1)Nc1ccc(NC(=O)c2ccc([N+](=O)[O-])o2)cc1 (stereo not drawn)	solubility [1]: 6.485 µg/mL (≈ 8.78 µM)
73.6%	O=C(/C=C/C(=O)N1CCN(CC2CCN(c3ccc4c(c3)C(=O)N(C3CCC(=O)NC3=O)C4=O)C2)CC1)Nc1ccc(NC(=O)c2ccc([N+](=O)[O-])o2)cc1 (stereo not drawn)	–
inactive	O=C1CCC(N2C(=O)c3cccc(N4CCC(N5CCN(C(=O)CCC(=O)Nc6ccc(NC(=O)c7ccc([N+](=O)[O-])o7)cc6)CC5)C4)c3C2=O)C(=O)N1 (stereo not drawn)	–
inactive	O=C1CCC(N2C(=O)c3cccc(N4CCN(CC5CCN(C(=O)CCC(=O)Nc6ccc(NC(=O)c7ccc([N+](=O)[O-])o7)cc6)CC5)CC4)c3C2=O)C(=O)N1 (stereo not drawn)	–
44.7%	O=C1CCC(N2C(=O)c3cccc(N4CCC(CN5CCN(C(=O)CCC(=O)Nc6ccc(NC(=O)c7ccc([N+](=O)[O-])o7)cc6)CC5)C4)c3C2=O)C(=O)N1 (stereo not drawn)	–
inactive	O=C1CCC(N2C(=O)c3cccc(N4CCC(N5CCN(C(=O)COCC(=O)Nc6ccc(NC(=O)c7ccc([N+](=O)[O-])o7)cc6)CC5)C4)c3C2=O)C(=O)N1 (stereo not drawn)	–
inactive	O=C1CCC(N2C(=O)c3cccc(N4CCC(CN5CCN(C(=O)COCC(=O)Nc6ccc(NC(=O)c7ccc([N+](=O)[O-])o7)cc6)CC5)C4)c3C2=O)C(=O)N1 (stereo not drawn)	–
30.3%	O=C(/C=C/C(=O)N1CC(N2CCN(c3cccc4c3C(=O)N(C3CCC(=O)NC3=O)C4=O)CC2)C1)Nc1ccc(NC(=O)c2ccc([N+](=O)[O-])o2)cc1 (stereo not drawn)	–
inactive	O=C1CCC(N2C(=O)c3cccc(N4CCN(CC5CN(C(=O)COCC(=O)Nc6ccc(NC(=O)c7ccc([N+](=O)[O-])o7)cc6)C5)CC4)c3C2=O)C(=O)N1 (stereo not drawn)	–
inactive	O=C(/C=C/C(=O)N1CC(CN2CCN(c3ccc4c(c3)C(=O)N(C3CCC(=O)NC3=O)C4=O)CC2)C1)Nc1ccc(NC(=O)c2ccc([N+](=O)[O-])o2)cc1 (stereo not drawn)	–
58%	O=C(/C=C/C(=O)N1CCN(C2CCN(c3cccc4c3C(=O)N(C3CCC(=O)NC3=O)C4=O)C2)CC1)Nc1ccc(NC(=O)c2ccc([N+](=O)[O-])o2)cc1 (stereo not drawn)	solubility [1]: 6.098 µg/mL (≈ 8.25 µM)
43.6%	O=C(/C=C/C(=O)N1CCN(CC2CCN(c3cccc4c3C(=O)N(C3CCC(=O)NC3=O)C4=O)CC2)CC1)Nc1ccc(NC(=O)c2ccc([N+](=O)[O-])o2)cc1 (stereo not drawn)	–
inactive	O=C1CCC(N2C(=O)c3cccc(N4CCN(CC5CCN(C(=O)CCCC(=O)Nc6ccc(NC(=O)c7ccc([N+](=O)[O-])o7)cc6)CC5)CC4)c3C2=O)C(=O)N1 (stereo not drawn)	–
25.3%	O=C(/C=C/C(=O)N1CCN(C2CCN(c3cccc4c3C(=O)N(C3CCC(=O)NC3=O)C4=O)CC2)CC1)Nc1ccc(NC(=O)c2ccc([N+](=O)[O-])o2)cc1 (stereo not drawn)	–
52.3%	O=C(/C=C/C(=O)N1CCC(CN2CCN(c3ccc4c(c3)C(=O)N(C3CCC(=O)NC3=O)C4=O)CC2)CC1)Nc1ccc(NC(=O)c2ccc([N+](=O)[O-])o2)cc1 (stereo not drawn)	–
20.3%	O=C(/C=C/C(=O)N1CCN(c2cccc3c2C(=O)N(C2CCC(=O)NC2=O)C3=O)CC1)Nc1ccc(NC(=O)c2ccc([N+](=O)[O-])o2)cc1 (stereo not drawn)	–
72.3%	O=C(/C=C/C(=O)N1CCN(CC2CCCN2c2ccc3c(c2)C(=O)N(C2CCC(=O)NC2=O)C3=O)CC1)Nc1ccc(NC(=O)c2ccc([N+](=O)[O-])o2)cc1 (stereo not drawn)	–
32.6%	O=C1CCC(N2C(=O)c3cccc(N4CCN(CC5CCN(C(=O)COCC(=O)Nc6ccc(NC(=O)c7ccc([N+](=O)[O-])o7)cc6)CC5)CC4)c3C2=O)C(=O)N1 (stereo not drawn)	–
inactive	O=C(/C=C/C(=O)N1CCN(C2CCN(c3ccc4c(c3)C(=O)N(C3CCC(=O)NC3=O)C4=O)C2)CC1)Nc1ccc(NC(=O)c2ccc([N+](=O)[O-])o2)cc1 (stereo not drawn)	–
–	CCn1nc(C)cc1C(=O)Nc1nc2cc(C(=O)NCCCCCCCCC(=O)N[C@@H](C(=O)N3C[C@H](O)C[C@H]3C(=O)NCc3ccc(-c4scnc4C)cc3)C(C)(C)C)cc(OC)c2n1C/C=C/Cn1c(NC(=O)c2cc(C)nn2CC)nc2cc(C(N)=O)cc(OCCCN3CCOCC3)c21	DC50 [3]: 227 nM
36.3%	O=C1CCC(N2C(=O)c3cccc(N4CCC(CN5CCN(C(=O)CCCC(=O)Nc6ccc(NC(=O)c7ccc([N+](=O)[O-])o7)cc6)CC5)C4)c3C2=O)C(=O)N1 (stereo not drawn)	–
59.2%	O=C(/C=C/C(=O)Nc1ccc(NC(=O)c2ccc([N+](=O)[O-])o2)cc1)NCCCCCCNc1cccc2c1C(=O)N(C1CCC(=O)NC1=O)C2=O (stereo not drawn)	solubility [1]: 0.854 µg/mL (≈ 1.22 µM); half-life [4]: 1.41 min; Activity [5]: 1.3%; CLint [6]: 1490 mL/min/g
inactive	O=C1CCC(N2C(=O)c3cccc(N4CCN(CC5CN(C(=O)CCCC(=O)Nc6ccc(NC(=O)c7ccc([N+](=O)[O-])o7)cc6)C5)CC4)c3C2=O)C(=O)N1 (stereo not drawn)	–
40.7%	O=C1CCC(N2C(=O)c3cccc(N4CCN(CC5CN(C(=O)CCC(=O)Nc6ccc(NC(=O)c7ccc([N+](=O)[O-])o7)cc6)C5)CC4)c3C2=O)C(=O)N1 (stereo not drawn)	–
40.5%	O=C1CCC(N2C(=O)c3cccc(N4CCC(N5CCN(C(=O)CCCC(=O)Nc6ccc(NC(=O)c7ccc([N+](=O)[O-])o7)cc6)CC5)C4)c3C2=O)C(=O)N1 (stereo not drawn)	–
63.6%	O=C(/C=C/C(=O)N1CCN(CC2CCN(c3ccc4c(c3)C(=O)N(C3CCC(=O)NC3=O)C4=O)CC2)CC1)Nc1ccc(NC(=O)c2ccc([N+](=O)[O-])o2)cc1 (stereo not drawn)	–
inactive	O=C(/C=C/C(=O)N1CCC(N2CCN(c3cccc4c3C(=O)N(C3CCC(=O)NC3=O)C4=O)CC2)CC1)Nc1ccc(NC(=O)c2ccc([N+](=O)[O-])o2)cc1 (stereo not drawn)	–
–	Cc1ncsc1-c1ccc(CNC(=O)[C@@H]2C[C@@H](O)CN2C(=O)[C@@H](NC(=O)CCC(=O)NCCCNC(=O)c2cccc(S(=O)(=O)n3cc(C(=O)NCCCCCC(=O)Oc4ccc(NC(=O)c5ccc(-c6ccccc6)cc5)cc4NS(=O)(=O)c4ccc(F)cc4)ccc3=O)c2)C(C)(C)C)cc1	DC50 [3]: 530 nM
71.1%	O=C(/C=C/C(=O)N1CCC(CN2CCN(c3cccc4c3C(=O)N(C3CCC(=O)NC3=O)C4=O)CC2)CC1)Nc1ccc(NC(=O)c2ccc([N+](=O)[O-])o2)cc1 (stereo not drawn)	solubility [1]: 1.562 µg/mL (≈ 2.04 µM)
77.7%	O=C(/C=C/C(=O)N1CCN(CC2CCCN2c2cccc3c2C(=O)N(C2CCC(=O)NC2=O)C3=O)CC1)Nc1ccc(NC(=O)c2ccc([N+](=O)[O-])o2)cc1 (stereo not drawn)	solubility [1]: 2.872 µg/mL (≈ 3.82 µM)
